Assay results taken from the supplement of paper PMC10307832.

Legend:
Assay in all cases: relative viability (nuclei count vs DMSO), 5 days (fraction); higher = more cells survive
SW 1573 = test system: SW 1573
Procedure, shortened: (§1)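 Lung cancer cell lines, seeded in 1536-well plates, were treated the following day by pin tool with a single drug or with five library-drug doses (not always all listed) in √10 steps on top of a fixed anchor-drug dose. Cells were fixed and nuclei stained in one step after 5 days, and nuclei were counted. Relative viability is the nuclei count for treated wells divided by that for vehicle wells, reported as medians of duplicate plates.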

LK-2 = test system: LK-2
Procedure, shortened: as §1

NCI-H23 = test system: NCI-H23
Procedure, shortened: as §1

NCI-H2085 = test system: NCI-H2085
Procedure, shortened: as §1

SW 900 = test system: SW 900
Procedure, shortened: as §1

HCC-78 = test system: HCC-78
Procedure, shortened: as §1

LXF-289 = test system: LXF-289
Procedure, shortened: as §1

NCI-H2126 = test system: NCI-H2126
Procedure, shortened: as §1

EMC-BAC-2 = test system: EMC-BAC-2
Procedure, shortened: as §1

RERF-LC-KJ = test system: RERF-LC-KJ
Procedure, shortened: as §1

NCI-H3122 = test system: NCI-H3122
Procedure, shortened: as §1

LOU-NH91 = test system: LOU-NH91
Procedure, shortened: as §1

SK-LU-1 = test system: SK-LU-1
Procedure, shortened: as §1

LCLC-103H = test system: LCLC-103H
Procedure, shortened: as §1

EPLC-272H = test system: EPLC-272H
Procedure, shortened: as §1

NCI-H2405 = test system: NCI-H2405
Procedure, shortened: as §1

NCI-H322M = test system: NCI-H322M
Procedure, shortened: as §1

HCC-827 = test system: HCC-827
Procedure, shortened: as §1

NCI-H1563 = test system: NCI-H1563
Procedure, shortened: as §1

NCI-H1975 = test system: NCI-H1975
Procedure, shortened: as §1

ChaGo-K-1 = test system: ChaGo-K-1
Procedure, shortened: as §1

LU99A = test system: LU99A
Procedure, shortened: as §1

NCI-H1666 = test system: NCI-H1666
Procedure, shortened: as §1

Oc1nc(-c2ccc(C(F)(F)F)cc2)nc2c1CSCC2 [XAV939] + COc1cc2c(Oc3ccc(NC(=O)C4(C(=O)Nc5ccc(F)cc5)CC4)cc3F)ccnc2cc1OCCCN1CCOCC1 [Foretinib] (partner 0.25 µM)
relative viability (SW 1573; first compound 0.08 µM): 1.2
relative viability (SW 1573; first compound 0.253 µM): 0.816
relative viability (SW 1573; first compound 0.8 µM): 0.732
relative viability (SW 1573; first compound 2.53 µM): 0.788
relative viability (LK-2; first compound 0.08 µM): 1.96
relative viability (LK-2; first compound 0.253 µM): 1.19
relative viability (LK-2; first compound 0.8 µM): 1.08
relative viability (LK-2; first compound 2.53 µM): 1.13
relative viability (NCI-H23; first compound 0.08 µM): 1.08
relative viability (NCI-H23; first compound 0.253 µM): 0.844
relative viability (NCI-H23; first compound 0.8 µM): 0.868
relative viability (NCI-H23; first compound 2.53 µM): 0.962
relative viability (NCI-H2085; first compound 0.08 µM): 1.06
relative viability (NCI-H2085; first compound 0.253 µM): 1.11
relative viability (NCI-H2085; first compound 0.8 µM): 0.772
relative viability (NCI-H2085; first compound 2.53 µM): 0.893
relative viability (SW 900; first compound 0.08 µM): 0.848
relative viability (SW 900; first compound 0.253 µM): 0.765
relative viability (SW 900; first compound 0.8 µM): 0.767
relative viability (SW 900; first compound 2.53 µM): 0.82
relative viability (HCC-78; first compound 0.08 µM): 0.591
relative viability (HCC-78; first compound 0.253 µM): 0.552
relative viability (HCC-78; first compound 0.8 µM): 0.552
relative viability (HCC-78; first compound 2.53 µM): 0.506
relative viability (LXF-289; first compound 0.08 µM): 0.985
relative viability (LXF-289; first compound 0.253 µM): 0.95
relative viability (LXF-289; first compound 0.8 µM): 0.967
relative viability (LXF-289; first compound 2.53 µM): 0.988
relative viability (NCI-H2126; first compound 0.08 µM): 1.1
relative viability (NCI-H2126; first compound 0.253 µM): 0.989
relative viability (NCI-H2126; first compound 0.8 µM): 1.17
relative viability (NCI-H2126; first compound 2.53 µM): 0.725
relative viability (EMC-BAC-2; first compound 0.08 µM): 1.05
relative viability (EMC-BAC-2; first compound 0.253 µM): 0.747
relative viability (EMC-BAC-2; first compound 0.8 µM): 0.848
relative viability (EMC-BAC-2; first compound 2.53 µM): 0.553
relative viability (RERF-LC-KJ; first compound 0.08 µM): 0.781
relative viability (RERF-LC-KJ; first compound 0.253 µM): 0.738
relative viability (RERF-LC-KJ; first compound 0.8 µM): 0.792
relative viability (RERF-LC-KJ; first compound 2.53 µM): 0.681
relative viability (NCI-H3122; first compound 0.08 µM): 0.926
relative viability (NCI-H3122; first compound 0.253 µM): 0.918
relative viability (NCI-H3122; first compound 0.8 µM): 0.942
relative viability (NCI-H3122; first compound 2.53 µM): 0.909
relative viability (LOU-NH91; first compound 0.08 µM): 0.932
relative viability (LOU-NH91; first compound 0.253 µM): 0.918
relative viability (LOU-NH91; first compound 0.8 µM): 0.903
relative viability (LOU-NH91; first compound 2.53 µM): 0.891
relative viability (SK-LU-1; first compound 0.08 µM): 0.861
relative viability (SK-LU-1; first compound 0.253 µM): 0.756
relative viability (SK-LU-1; first compound 0.8 µM): 0.883
relative viability (SK-LU-1; first compound 2.53 µM): 0.78
relative viability (LCLC-103H; first compound 0.08 µM): 0.853
relative viability (LCLC-103H; first compound 0.253 µM): 0.643
relative viability (LCLC-103H; first compound 0.8 µM): 0.748
relative viability (LCLC-103H; first compound 2.53 µM): 0.659
relative viability (EPLC-272H; first compound 0.08 µM): 0.808
relative viability (EPLC-272H; first compound 0.253 µM): 0.603
relative viability (EPLC-272H; first compound 0.8 µM): 0.672
relative viability (EPLC-272H; first compound 2.53 µM): 0.548
relative viability (NCI-H2405; first compound 0.08 µM): 0.99
relative viability (NCI-H2405; first compound 0.253 µM): 1.01
relative viability (NCI-H2405; first compound 0.8 µM): 1.03
relative viability (NCI-H2405; first compound 2.53 µM): 1.01
relative viability (NCI-H322M; first compound 0.08 µM): 1.11
relative viability (NCI-H322M; first compound 0.253 µM): 0.921
relative viability (NCI-H322M; first compound 0.8 µM): 0.778
relative viability (NCI-H322M; first compound 2.53 µM): 0.609
relative viability (HCC-827; first compound 0.08 µM): 1.11
relative viability (HCC-827; first compound 0.253 µM): 0.996
relative viability (HCC-827; first compound 0.8 µM): 1.06
relative viability (HCC-827; first compound 2.53 µM): 0.989
relative viability (NCI-H1563; first compound 0.08 µM): 1.02
relative viability (NCI-H1563; first compound 0.253 µM): 0.905
relative viability (NCI-H1563; first compound 0.8 µM): 0.831
relative viability (NCI-H1563; first compound 2.53 µM): 0.678
relative viability (NCI-H1975; first compound 0.08 µM): 0.858
relative viability (NCI-H1975; first compound 0.253 µM): 0.696
relative viability (NCI-H1975; first compound 0.8 µM): 0.691
relative viability (NCI-H1975; first compound 2.53 µM): 0.756
relative viability (ChaGo-K-1; first compound 0.08 µM): 0.874
relative viability (ChaGo-K-1; first compound 0.253 µM): 1.01
relative viability (ChaGo-K-1; first compound 0.8 µM): 0.812
relative viability (ChaGo-K-1; first compound 2.53 µM): 0.773
relative viability (LU99A; first compound 0.08 µM): 0.794
relative viability (LU99A; first compound 0.253 µM): 0.815
relative viability (LU99A; first compound 0.8 µM): 0.744
relative viability (LU99A; first compound 2.53 µM): 0.724
relative viability (NCI-H1666; first compound 0.08 µM): 0.99
relative viability (NCI-H1666; first compound 0.253 µM): 0.919
relative viability (NCI-H1666; first compound 0.8 µM): 0.908
relative viability (NCI-H1666; first compound 2.53 µM): 0.952
